# Experimental data published in patent publication US20220031800A1, “PEPTIDES FOR TREATING NON-EXUDATIVE MACULAR DEGENERATION AND OTHER DISORDERS OF THE EYE” (Allegro Pharmaceuticals, LLC, priority 2019, published 2022).
# Square brackets hold non-standard residues; d marks the D form. Peptide text beside a SMILES is read from it. Cya = N[C@@H](CS(=O)(=O)O)C(=O)O
# Tested on: study eye of subjects with intermediate non-exudative AMD
# Assay: SD-OCT Analysis 2 (thickness, volume, map coverage of retinal layers)
# Type: in vivo, human
# Procedure: Numerous study assessments were conducted at various time points throughout the study. Included among these study assessments were; refractive eye examinations, determinations of BCVA AND low-luminance BCVA, Lanthony D-15 color vision test, measurement of intraocular pressure (IOP), Indirect ophthalmoscopy/dilated fundus examinations and spectral-domain optical coherence tomography (SD-OCT). Also, blood and saliva samples were obtained from each subject for genetic analysis. The above-listed study assessments were performed at the time points indicated in Table 1, below: The OCT scans were analyzed by two (2) unrelated experts. In Analysis #2, the OCT images of study eyes were analyzed to determine mean thickness and mean volume of numerous retinal subfields and layer segments at baseline and at Week 12 for sham eyes and at baseline and at Week 32 for risuteganib eyes, to document any significant differences between groups of eyes based on baseline measurements or changes from baseline in those measurements. In addition to the quantitative analysis of OCT images, OCT Analysis #2 included qualitative assessment of the OCT images to identify GA, pseudodrusen, and disruption of the ELM and EZ layers. FIGS. 9A, 9B and 9C illustrate the level of varying pathology within the ELM based on quantitative mapping that were also assessed, with FIG. 9A (left) showing no ELM disruption, FIG. 9B (center) showing segmental disruption, and FIG. 9C showing diffuse disruption.
# [1] = change from baseline at Week 32, risuteganib super-responder eyes, n = 8
# [2] = paired change from baseline at Week 32, risuteganib arm n = 24
# [3] = paired difference from baseline at Week 32, risuteganib arm n = 24
smiles,measurement,setting,value
"C[C@@H](O)[C@H](NC(=O)[C@H](CS(=O)(=O)O)NC(=O)CNC(=O)[C@H](CCCNC(=N)N)NC(=O)CN)C(=O)N1CCC[C@H]1C(=O)O [risuteganib, Glycyl-L-arginylglycyl-3-sulfo-L-alanyl-L-threonyl-L-proline] (H-GRG[Cya]TP-OH)","Change in mean thickness, ELM-RPE mid subfield",[1],−2.493 μm
same,"Change in mean thickness, EZ-RPE central subfield",[1],−1.803 μm
same,"Change in mean thickness, EZ-RPE foveal center",[1],6.825 μm
same,"Change in mean thickness, EZ-RPE mid subfield",[1],−1.445 μm
same,"Change in mean thickness, Inner retina central subfield",[1],8.759 μm
same,"Change in mean thickness, Inner retina mid subfield",[1],8.511 μm
same,"Change in mean thickness, ONL-EZ central subfield",[1],−9.158 μm
same,"Change in mean thickness, ONL-EZ mid subfield",[1],−8.556 μm
same,"Change in mean thickness, ONL-RPE central subfield",[1],−10.961 μm
same,"Change in mean thickness, ONL-RPE foveal center",[1],−6.825 μm
same,"Change in mean thickness, ONL-RPE mid subfield",[1],−10.001 μm
same,"Change in mean thickness, RPE-BM central subfield",[1],−11.226 μm
same,"Change in mean thickness, RPE-BM foveal center",[1],−14.381 μm
same,"Change in mean thickness, RPE-BM mid subfield",[1],−6.715 μm
same,"Change in mean thickness, Total retinal central subfield",[1],−2.202 μm
same,"Change in mean thickness, Total retinal foveal center",[1],−7.569 μm
same,"Change in mean thickness, Total retinal mid subfield",[1],−1.490 μm
same,"Change in volume, ELM-EZ central subfield",[1],−0.001 mm^3
same,"Change in volume, ELM-EZ mid subfield",[1],−0.003 mm^3
same,"Change in volume, ELM-RPE",[1],0.171 mm^3
same,"Change in volume, ELM-RPE central subfield",[1],−0.003 mm^3
same,"Change in volume, ELM-RPE mid subfield",[1],−0.008 mm^3
same,"Change in volume, EZ-RPE",[1],−0.051 mm^3
same,"Change in volume, EZ-RPE central subfield",[1],−0.001 mm^3
same,"Change in volume, EZ-RPE mid subfield",[1],−0.005 mm^3
same,"Change in volume, ONL-EZ central subfield",[1],−0.007 mm^3
same,"Change in volume, ONL-EZ mid subfield",[1],−0.027 mm^3
same,"Change in volume, ONL-RPE",[1],0.044 mm^3
same,"Change in volume, ONL-RPE central subfield",[1],−0.008 mm^3
same,"Change in volume, ONL-RPE mid subfield",[1],−0.032 mm^3
same,"Change in volume, RPE-BM",[1],−0.048 mm^3
same,"Change in volume, RPE-BM central subfield",[1],−0.009 mm^3
same,"Change in volume, RPE-BM mid subfield",[1],−0.021 mm^3
same,"Change in volume, Total retinal",[1],−0.247 mm^3
same,"Change in volume, Total retinal central subfield",[1],−0.001 mm^3
same,"Change in volume, Total retinal mid subfield",[1],−0.005 mm^3
same,"Map coverage, 0 μm EZ",[1],5.026%
same,"Map coverage, 0 μm RPE-BM",[1],1.546%
same,"Map coverage, 10 μm EZ",[1],5.037%
same,"Map coverage, 20 μm EZ",[1],4.506%
same,"Map coverage, 50 μm RPE-BM",[1],−3.222%
same,"Map coverage, 150 μm RPE-BM",[1],2.943%
same,"Map coverage, 250 μm RPE-BM",[1],−0.017%
same,"Change in mean (SD) thickness, ELM-EZ central subfield",[2],−1.827 μm
same,"Change in mean (SD) thickness, ELM-EZ mid subfield",[2],−0.106 μm
same,"Change in mean (SD) thickness, ELM-RPE central subfield",[2],−2.912 μm
same,"Change in mean (SD) thickness, ELM-RPE foveal center",[2],−6.094 μm
same,"Change in mean (SD) thickness, ELM-RPE mid subfield",[2],−1.593 μm
same,"Change in mean (SD) thickness, EZ-RPE central subfield",[2],−1.085 μm
same,"Change in mean (SD) thickness, EZ-RPE foveal center",[2],−0.407 μm
same,"Change in mean (SD) thickness, EZ-RPE mid subfield",[2],−1.486 μm
same,"Change in mean (SD) thickness, Inner retina central subfield",[2],3.880 μm
same,"Change in mean (SD) thickness, Inner retina mid subfield",[2],3.893 μm
same,"Change in mean (SD) thickness, ONL-EZ central subfield",[2],−6.131 μm
same,"Change in mean (SD) thickness, ONL-EZ mid subfield",[2],−4.954 μm
same,"Change in mean (SD) thickness, ONL-RPE central subfield",[2],−7.216 μm
same,"Change in mean (SD) thickness, ONL-RPE foveal center",[2],−3.488 μm
same,"Change in mean (SD) thickness, ONL-RPE mid subfield",[2],−6.441 μm
same,"Change in mean (SD) thickness, RPE-BM central subfield",[2],−4.178 μm
same,"Change in mean (SD) thickness, RPE-BM foveal center",[2],−8.126 μm
same,"Change in mean (SD) thickness, RPE-BM mid subfield",[2],−2.086 μm
same,"Change in mean (SD) thickness, Total retinal central subfield",[2],−3.336 μm
same,"Change in mean (SD) thickness, Total retinal foveal center",[2],−4.154 μm
same,"Change in mean (SD) thickness, Total retinal mid subfield",[2],−2.548 μm
same,"Change in volume, ELM-EZ central subfield",[2],−0.001 mm^3
same,"Change in volume, ELM-EZ mid subfield",[2],0.000 mm^3
same,"Change in volume, ELM-RPE",[2],0.048 mm^3
same,"Change in volume, ELM-RPE central subfield",[2],−0.002 mm^3
same,"Change in volume, ELM-RPE mid subfield",[2],−0.005 mm^3
same,"Change in volume, EZ-RPE",[2],−0.027 mm^3
same,"Change in volume, EZ-RPE central subfield",[2],−0.001 mm^3
same,"Change in volume, EZ-RPE mid subfield",[2],−0.005 mm^3
same,"Change in volume, ONL-EZ central subfield",[2],−0.005 mm^3
same,"Change in volume, ONL-EZ mid subfield",[2],−0.016 mm^3
same,"Change in volume, ONL-RPE",[2],−0.009 mm^3
same,"Change in volume, ONL-RPE central subfield",[2],−0.005 mm^3
same,"Change in volume, ONL-RPE mid subfield",[2],−0.020 mm^3
same,"Change in volume, RPE-BM",[2],−0.006 mm^3
same,"Change in volume, RPE-BM central subfield",[2],−0.003 mm^3
same,"Change in volume, RPE-BM mid subfield",[2],−0.007 mm^3
same,"Change in volume, Total retinal",[2],−0.048 mm^3
same,"Change in volume, Total retinal central subfield",[2],−0.002 mm^3
same,"Change in volume, Total retinal mid subfield",[2],−0.008 mm^3
same,"Map coverage, 0 μm EZ",[3],2.574%
same,"Map coverage, 0 μm RPE-BM",[3],1.282%
same,"Map coverage, 10 μm EZ",[3],2.515%
same,"Map coverage, 20 μm EZ",[3],2.431%
same,"Map coverage, 50 μm RPE-BM",[3],−2.644%
same,"Map coverage, 150 μm RPE-BM",[3],2.739%
same,"Map coverage, 250 μm RPE-BM",[3],−0.006%
